From patent US20100303936A1, “METHOD OF REDUCING FAT ACCUMULATION AND INDUCING WEIGHT LOSS” (Bionovo, Inc. A Delaware Corporation, priority 2009, published 2010)
“Also recorded” adds a separate entry of the source.

Experiment: Ovariectomized mice on high fat diet (HFD): body weight, abdominal fat, uterus and mammary gland
Format: in vivo
Experimental: To test the effects of the two PEs (3 and 39) in animals, 10 week old ovariectomized C57/B16 female mice were placed on a high fat diet (HFD) for 50 days to increase body weight and abdominal fat. After gaining weight, the mice were treated orally for 6 weeks with the two PEs separately while being kept on HFD. The vehicle-treated (placebo) control mice continued to gain weight (9% weight increase) even after treatment. The E2-treated mice, which served as positive controls lost 20.5% of their weight. […] The abdominal fat weight dropped by 48% or 32% in the PE-treated groups (3, 39, respectively) and 80% in E2-treated mice compared to control. The growth of mammary gland (MG) and uteri was assessed by measuring MG and uterine weights and by analyzing MG morphology in whole-mounts. […] FIG. 4.

[1] = ovariectomized mice on HFD, 42 days

## C[C@]12CC[C@@H]3c4ccc(O)cc4CC[C@H]3[C@@H]1CC[C@@H]2O [Extract E2, estradiol]
Ovariectomized C57/B16 female mice on HFD, treated 6 weeks
  body weight lost: 20.5%
Ovariectomized mice on HFD, 6 weeks treatment
  abdominal fat weight drop compared to control: 80%
[1]
  mammary gland morphology (ducts, histology / whole-mounts): elongation and branching of ducts in mammary tissue; also recorded: induced elongation and branching of mammary ducts
  uterine weight (in words): induced uterine tissue weight gain; also recorded: induced significant weight gain in the uterus
